Laboratory results reported in BindingDB's records for doi:10.1111/j.1747-0285.2007.00617.x (Burnham Institute For Medical Research, 2008).

Experiments:
[1] = target: 72 kDa type IV collagenase (Homo sapiens, UniProt P08253); experiment: MMP Inhibition Assay
Procedure: (§1) This assay was performed as outlined in the Anaspec MMP assay kit. The fluorescence peptide cleavage assay was performed in a 96-well plate in which each reaction mixture contained 5-FAM / QXL520 and activated MMP-2 or MMP-9 in assay buffer, and the screening compounds.

[2] = target: Matrix metalloproteinase-9 (Homo sapiens, UniProt P14780); experiment: MMP Inhibition Assay
Procedure: as §1

Sequence of Matrix metalloproteinase-9 (P14780 whole entry): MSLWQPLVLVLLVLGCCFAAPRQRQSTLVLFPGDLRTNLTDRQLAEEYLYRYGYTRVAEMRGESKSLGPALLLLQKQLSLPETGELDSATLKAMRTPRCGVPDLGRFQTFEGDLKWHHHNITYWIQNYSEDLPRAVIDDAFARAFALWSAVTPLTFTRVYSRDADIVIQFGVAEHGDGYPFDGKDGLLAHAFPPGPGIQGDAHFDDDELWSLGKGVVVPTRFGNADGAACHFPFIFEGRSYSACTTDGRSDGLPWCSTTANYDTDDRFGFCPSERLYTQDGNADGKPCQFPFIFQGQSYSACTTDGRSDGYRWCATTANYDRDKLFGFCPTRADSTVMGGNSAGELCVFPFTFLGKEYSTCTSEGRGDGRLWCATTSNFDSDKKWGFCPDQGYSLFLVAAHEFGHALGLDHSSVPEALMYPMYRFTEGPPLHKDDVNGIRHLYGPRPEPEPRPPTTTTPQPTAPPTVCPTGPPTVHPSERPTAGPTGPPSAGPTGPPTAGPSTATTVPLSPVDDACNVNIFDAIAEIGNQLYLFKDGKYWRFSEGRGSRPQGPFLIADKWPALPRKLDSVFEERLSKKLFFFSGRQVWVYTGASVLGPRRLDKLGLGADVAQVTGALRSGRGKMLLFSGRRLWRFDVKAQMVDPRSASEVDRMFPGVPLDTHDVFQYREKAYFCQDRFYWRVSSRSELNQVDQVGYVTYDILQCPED
Sequence of 72 kDa type IV collagenase (P08253 whole entry): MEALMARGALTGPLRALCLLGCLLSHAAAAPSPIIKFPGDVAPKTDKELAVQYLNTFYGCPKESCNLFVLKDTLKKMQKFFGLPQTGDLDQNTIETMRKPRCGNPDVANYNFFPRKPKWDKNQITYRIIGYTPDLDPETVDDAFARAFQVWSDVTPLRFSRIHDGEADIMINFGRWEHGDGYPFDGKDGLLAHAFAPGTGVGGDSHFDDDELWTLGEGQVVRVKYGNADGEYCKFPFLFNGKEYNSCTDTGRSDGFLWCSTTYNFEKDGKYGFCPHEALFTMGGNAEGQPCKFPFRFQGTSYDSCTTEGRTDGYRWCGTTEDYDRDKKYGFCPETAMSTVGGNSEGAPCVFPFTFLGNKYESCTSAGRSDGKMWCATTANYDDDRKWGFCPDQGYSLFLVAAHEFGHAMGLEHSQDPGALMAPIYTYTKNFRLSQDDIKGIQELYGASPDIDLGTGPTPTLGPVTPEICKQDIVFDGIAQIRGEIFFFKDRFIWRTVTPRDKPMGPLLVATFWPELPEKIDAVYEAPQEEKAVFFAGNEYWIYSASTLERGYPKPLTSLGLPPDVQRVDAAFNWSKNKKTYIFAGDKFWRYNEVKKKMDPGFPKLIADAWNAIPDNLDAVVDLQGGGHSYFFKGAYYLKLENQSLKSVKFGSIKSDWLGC

SMILES	IC50 [1] [µM]	IC50 [2] [µM]
COc1ccc(-c2cc(/C=C3\SC(=S)N(CC(=O)O)C3=O)no2)cc1 [2-[(5Z)-5-{[5-(4-methoxyphenyl)-1,2-oxazol-3-yl]methylidene}-4-oxo-2-sulfanylidene-1,3-thiazolidin-3-yl]acetic acid]	6.62	> 100
O=C(O)CN1C(=O)/C(=C/c2cc(-c3ccco3)on2)SC1=S [2-[(5Z)-5-{[5-(furan-2-yl)-1,2-oxazol-3-yl]methylidene}-4-oxo-2-sulfanylidene-1,3-thiazolidin-3-yl]acetic acid]	–	> 100
CC(C)(C)OC(=O)N1CCC(c2nc(/C=C3\SC(=S)N(CC(=O)O)C3=O)cs2)CC1 [2-[(5Z)-5-[(2-{1-[(tert-butoxy)carbonyl]piperidin-4-yl}-1,3-thiazol-4-yl)methylidene]-4-oxo-2-sulfanylidene-1,3-thiazolidin-3-yl]acetic acid]	> 100	> 100
O=C(O)CN1C(=O)/C(=C/c2c[nH]c3ccc(Br)cc23)SC1=S [2-[(5Z)-5-[(5-bromo-1H-indol-3-yl)methylidene]-4-oxo-2-sulfanylidene-1,3-thiazolidin-3-yl]acetic acid]	–	> 100
O=C(O)CN1C(=O)/C(=C/c2cc(-c3ccc(F)cc3)on2)SC1=S [2-[(5Z)-5-{[5-(4-fluorophenyl)-1,2-oxazol-3-yl]methylidene}-4-oxo-2-sulfanylidene-1,3-thiazolidin-3-yl]acetic acid]	10	> 100
O=C(O)CN1C(=O)/C(=C/c2cc(-c3ccc(Cl)cc3)on2)SC1=S [2-[(5Z)-5-{[5-(4-chlorophenyl)-1,2-oxazol-3-yl]methylidene}-4-oxo-2-sulfanylidene-1,3-thiazolidin-3-yl]acetic acid]	19.2	> 100
O=C(O)CN1C(=O)/C(=C/c2cc(-c3ccccc3)on2)SC1=S [2-[(5Z)-4-oxo-5-[(5-phenyl-1,2-oxazol-3-yl)methylidene]-2-sulfanylidene-1,3-thiazolidin-3-yl]acetic acid]	> 100	50
Cc1ccc(-c2cc(/C=C3\SC(=S)N(CC(=O)O)C3=O)no2)cc1 [2-[(5Z)-5-{[5-(4-methylphenyl)-1,2-oxazol-3-yl]methylidene}-4-oxo-2-sulfanylidene-1,3-thiazolidin-3-yl]acetic acid]	< 10	> 100
O=C(O)CN1C(=O)/C(=C/c2cc(-c3ccc(Br)cc3)on2)SC1=S [2-[(5Z)-5-{[5-(4-bromophenyl)-1,2-oxazol-3-yl]methylidene}-4-oxo-2-sulfanylidene-1,3-thiazolidin-3-yl]acetic acid]	> 100	27.4
Cc1nc(/C=C2\SC(=S)N(CC(=O)O)C2=O)c(C)o1 [2-[(5Z)-5-[(2,5-dimethyl-1,3-oxazol-4-yl)methylidene]-4-oxo-2-sulfanylidene-1,3-thiazolidin-3-yl]acetic acid]	> 100	> 100
Cc1nc(-c2ccccc2)c(/C=C2\SC(=S)N(CC(=O)O)C2=O)s1 [2-[(5Z)-5-[(2-methyl-4-phenyl-1,3-thiazol-5-yl)methylidene]-4-oxo-2-sulfanylidene-1,3-thiazolidin-3-yl]acetic acid]	> 100	> 100
